In PubChem BioAssay (NCI):
Several values for one entry are separate records, joined by “and”; a condition that tells them apart may be missing. Equal values may be shown once.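 Cultured in 96-well plates, cells were exposed to test compound for 48 hours across five concentrations. GI50 = concentration required for 50% inhibition of growth. The concentration for full growth arrest is given as TGI.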

Key:
Test in all cases: NCI anticancer screen, dose series, 48 h
HCC-2998 colon = test system: HCC-2998 colon
A498 renal = test system: A498 renal
LOX IMVI melanoma = test system: LOX IMVI melanoma
NCI-H522 lung = test system: NCI-H522 lung
DU-145 prostate = test system: DU-145 prostate
SF-268 CNS = test system: SF-268 CNS
UO-31 renal = test system: UO-31 renal
786-0 renal = test system: 786-0 renal
SF-295 CNS = test system: SF-295 CNS
PC-3 prostate = test system: PC-3 prostate

Row | Structure (SMILES) | TGI (HCC-2998 colon) [µM] | TGI (A498 renal) | TGI (LOX IMVI melanoma) [µM] | TGI (NCI-H522 lung) [µM] | TGI (DU-145 prostate) [µM] | TGI (SF-268 CNS) [µM] | TGI (UO-31 renal) | TGI (786-0 renal) [µM] | TGI (SF-295 CNS) [µM] | TGI (PC-3 prostate) | GI50 (HCC-2998 colon) [µM] | GI50 (A498 renal) | GI50 (LOX IMVI melanoma) | GI50 (NCI-H522 lung) [µM] | GI50 (SF-268 CNS) [µM] | GI50 (UO-31 renal) [µM] | GI50 (SF-295 CNS) | GI50 (PC-3 prostate) [µM]
1 | CC(C)Oc1c(-c2ccc(F)cc2)c(O)c2c3c1oc(=O)n3C=CC2C (configuration not stated) | 26.2 | 28.2 µM | 28.2 | 27.2 | 51.6 | 35.2 | 25.5 µM | 27.8 | 34.6 | 31.7 µM |  |  |  |  |  |  |  | 
2 | C=C1C[C@H](O)[C@H](Br)C(C)(C)C12CCC(C)(Cl)C(Br)C2 (some centres not stated) | 15.5 |  | 20.1 | 15 | 15.8 | 20.8 | 17 µM | 15.4 | 8.13 | 1.77 µM |  |  |  |  |  |  |  | 
3 | COc1ccc2nc3cccc([N+](=O)[O-])c3c(NCCCO)c2c1 |  | 0.0435 µM and 0.0788 µM |  | 0.00662 | 15.6 |  | 0.00749 µM and 0.0237 µM | 0.0517 |  | 0.0104 µM and 0.103 µM | 0.00186 | 0.017 µM and 0.0275 µM | 0.0085 µM and 0.0471 µM | 0.00165 | 0.00101 | 0.0017 | 0.00799 µM and 0.0319 µM | 
4 | c1ccc(CSC2(SCc3ccccc3)CCCCC2)cc1 | > 10 | > 10 µM | > 10 | > 10 | > 10 | > 10 | > 10 µM | > 10 | > 10 | > 10 µM |  |  |  |  |  |  |  | 
5 | CC(=O)N(C(C)=O)c1cc2c3c(c1)CCCN3CCC2 | > 10 | > 10 µM | > 10 | > 10 | > 10 | > 10 |  | > 10 | > 10 | > 10 µM |  |  |  |  |  |  |  | 
6 | Cc1cnc2[nH]c(-c3ccc4ccccc4c3)cc(=O)c2c1 | > 100 |  | > 100 | 2.25 | 27.9 | > 100 | > 100 µM | > 100 | > 100 | > 100 µM |  |  |  |  |  |  | 0.549 µM | 0.404
7 | O=c1cc(-c2cccnc2)[nH]c2cc3c(cc12)OCO3 | 19.4 | > 69.9 µM | > 100 | > 21.6 | > 100 | > 100 | > 100 µM | > 100 | > 38.5 | > 100 µM |  |  |  |  |  |  |  | 
8 | Cc1ccc(Nc2nc3c(=O)n(C)c(=O)n(C)c3nc2Nc2ccc(C)cc2)cc1 | 35.1 | 40.2 µM | 22.6 | 2.42 | > 100 | 32.2 | 24.4 µM | 18.7 | 45.7 | 27.9 µM |  |  |  |  |  |  |  | 
9 | CC1(C)N=C(C2CCCN2C(=O)OCc2ccccc2)OC1=O (configuration not stated) | > 100 | > 100 µM | > 100 | > 100 | > 100 | > 100 | > 100 µM | > 100 | > 100 | > 100 µM |  |  |  |  |  |  |  | 
10 | CCOC(=O)c1c(NC(=S)Nc2ccccc2)sc2c1CCOC2 | > 100 | > 100 µM | > 100 | > 100 | > 100 | > 100 | > 100 µM | > 100 | > 100 | > 100 µM |  |  |  |  |  |  |  | 
11 | Cc1nc2sccn2c1/C=C1/C(=O)Nc2cccc(Cl)c21 | > 100 | > 100 µM | > 100 | > 100 | > 100 | > 100 | > 100 µM | > 100 | > 100 | > 100 µM |  |  |  |  |  |  |  | 
12 | CC(=O)OC(C)(C)CCC(=O)[C@](C)(O)[C@H]1[C@H](O)C[C@@]2(C)[C@@H]3CCc4c(cc(OC5OC(CO)C(O)C(O)C5O)c(O)c4C)C3(C)C(=O)C[C@]12C (some centres not stated) | > 100 | > 100 µM | > 100 | > 100 | > 100 | > 100 | > 100 µM | > 100 | > 100 | > 100 µM |  |  |  |  |  |  |  | 
13 | O=C1CC(NCc2ccccc2)c2c(Cl)sc(Cl)c21 (configuration not stated) | 35.7 | > 100 µM | 18.5 | 18.3 | > 66.5 | 50.2 | 75.7 µM | 57.8 | > 100 | 43 µM |  |  |  |  |  |  |  | 
14 | CCO/C=N/C1=C(C#N)SC2=N/C(=C\c3ccccc3)C(=O)N21 | > 100 | > 100 µM | > 100 | > 100 | > 100 | > 100 | > 100 µM | > 100 | > 100 | > 100 µM |  |  |  |  |  |  |  | 
15 | O=C(c1cc2c(c3ccccc13)NC1(CCCCC1)N=C2C(F)(F)F)C(F)(F)F | 10.4 | 20.8 µM | 12.1 | 6.95 | 19.6 | 20 | 11.8 µM | 14.1 | 10.9 | 12.4 µM |  |  |  |  |  |  |  | 
